# How the values were obtained:
# Assay type in all cases: in vivo
# Conditions in all cases: 250 g/ha, after 13 days
# [1] = system: Amaranthus retoflexus (AMARE); test: B1 Post-Emergence Efficacy Test 1
# Protocol: (§1) Seeds of a variety of test species are sown in standard soil in pots:— Solanum nigrum (SOLNI), Amaranthus retoflexus (AMARE), Setaria faberi (SETFA), Echinochloa crus-galli (ECHCG), Ipomoea hederacea (IPOHE), Lolium perenne (LOLPE). After 8 days cultivation (post-emergence) under controlled conditions in a glasshouse (at 24/16° C., day/night; 14 hours light; 65% humidity), the plants are sprayed with an aqueous spray solution derived from the formulation of the technical active ingredient in acetone/water (50:50) solution containing 0.5% Tween 20 (polyoxyethylene sorbitan monolaurate, CAS RN 9005-64-5). Compounds are applied at 250 g/ha. The test plants are then grown in a glasshouse under controlled conditions in a glasshouse (at 24/16° C., day/night; 14 hours light; 65% humidity) and watered twice daily. After 13 days, the test is evaluated for the percentage damage caused to the plant. The biological activities are assessed on a five point scale (5=80-100%; 4=60-79%; 3=40-59%; 2=20-39%; 1=0-19%). A blank value in the table is indicative that the compound was not tested on that species.
# [2] = system: Echinochloa crus-galli (ECHCG); test: B1 Post-Emergence Efficacy Test 1
# Protocol: as §1
# [3] = system: Ipomoea hederacea (IPOHE); test: B1 Post-Emergence Efficacy Test 1
# Protocol: as §1
# [4] = system: Lolium perenne (LOLPE); test: B1 Post-Emergence Efficacy Test 1
# Protocol: as §1
# [5] = system: Setaria faberi (SETFA); test: B1 Post-Emergence Efficacy Test 1
# Protocol: as §1
# [6] = system: Solanum nigrum (SOLNI); test: B1 Post-Emergence Efficacy Test 1
# Protocol: as §1
# [7] = system: Amaranthus retoflexus (AMARE); test: B3 Pre-Emergence Efficacy Test 1
# Protocol: (§2) Seeds of a variety of test species were sown in standard soil in pots: Solanum nigrum (SOLNI), Amaranthus retoflexus (AMARE), Setaria faberi (SETFA), Echinochloa crus-galli (ECHCG), Ipomoea hederacea (IPOHE), Lolium perenne (LOLPE). After cultivation for one day (pre-emergence) under controlled conditions in a glasshouse (at 24/16° C., day/night; 14 hours light; 65% humidity), the plants were sprayed with an aqueous spray solution derived from the formulation of the technical active ingredient in acetone/water (50:50) solution containing 0.5% Tween 20 (polyoxyethelyene sorbitan monolaurate, CAS RN 9005-64-5). Compounds are applied at 250 g/ha. The test plants were then grown in a glasshouse under controlled conditions (at 24/16° C., day/night; 14 hours light; 65% humidity) and watered twice daily. After 13 days, the test is evaluated for the percentage damage caused to the plant. The biological activities are assessed on a five point scale (5=80-100%; 4=60-79%; 3=40-59%; 2=20-39%; 1=0-19%). A blank value in the table is indicative that the compound was not tested on that species.
# [8] = system: Echinochloa crus-galli (ECHCG); test: B3 Pre-Emergence Efficacy Test 1
# Protocol: as §2
# [9] = system: Ipomoea hederacea (IPOHE); test: B3 Pre-Emergence Efficacy Test 1
# Protocol: as §2
# [10] = system: Lolium perenne (LOLPE); test: B3 Pre-Emergence Efficacy Test 1
# Protocol: as §2
# [11] = system: Setaria faberi (SETFA); test: B3 Pre-Emergence Efficacy Test 1
# Protocol: as §2
# [12] = system: Solanum nigrum (SOLNI); test: B3 Pre-Emergence Efficacy Test 1
# Protocol: as §2
Structure (SMILES),"percentage damage caused to the plant, five point scale, AMARE [1]","percentage damage caused to the plant, five point scale, ECHCG [2]","percentage damage caused to the plant, five point scale, IPOHE [3]","percentage damage caused to the plant, five point scale, LOLPE [4]","percentage damage caused to the plant, five point scale, SETFA [5]","percentage damage caused to the plant, five point scale, SOLNI [6]","percentage damage caused to the plant, five point scale, AMARE [7]","percentage damage caused to the plant, five point scale, ECHCG [8]","percentage damage caused to the plant, five point scale, IPOHE [9]","percentage damage caused to the plant, five point scale, LOLPE [10]","percentage damage caused to the plant, five point scale, SETFA [11]","percentage damage caused to the plant, five point scale, SOLNI [12]"
Cc1nn(C)c(=O)c(-c2c(F)ccc(Cl)c2CCc2ccc3c(c2)CCCN3)c1O [Compound 1.019],4 (4=60-79%),3 (3=40-59%),5 (5=80-100%),5 (5=80-100%),5 (5=80-100%),5 (5=80-100%),5 (5=80-100%),1 (1=0-19%),1 (1=0-19%),3 (3=40-59%),4 (4=60-79%),5 (5=80-100%)
CCc1nc2ccc(CCc3c(Cl)ccc(F)c3-c3c(O)c(C)nn(C)c3=O)cc2o1 [Compound 1.028],5 (5=80-100%),5 (5=80-100%),5 (5=80-100%),5 (5=80-100%),5 (5=80-100%),5 (5=80-100%),5 (5=80-100%),1 (1=0-19%),5 (5=80-100%),5 (5=80-100%),5 (5=80-100%),5 (5=80-100%)
Cc1nn(C)c(=O)c(-c2c(F)ccc(Cl)c2CCc2ccnc3ccccc23)c1O [Compound 1.036],5 (5=80-100%),5 (5=80-100%),5 (5=80-100%),5 (5=80-100%),5 (5=80-100%),5 (5=80-100%),5 (5=80-100%),5 (5=80-100%),5 (5=80-100%),5 (5=80-100%),5 (5=80-100%),5 (5=80-100%)
"Cc1nn(C)c(=O)c(-c2c(F)ccc(Cl)c2CCc2ccc3c(c2)CCC(C)N3)c1OC(=O)C(C)C (stereo not drawn) [Compound 3.030, [5-[3-chloro-6-fluoro-2-[2-(2-methyl-1,2,3,4-tetrahydroquinolin-6-yl)ethyl]phenyl]-1,3-dimethyl-6-oxo-pyridazin-4-yl] 2-methylpropanoate]",5 (5=80-100%),5 (5=80-100%),5 (5=80-100%),5 (5=80-100%),5 (5=80-100%),5 (5=80-100%),5 (5=80-100%),5 (5=80-100%),5 (5=80-100%),5 (5=80-100%),5 (5=80-100%),5 (5=80-100%)
"Cc1ccc2cc(CCc3c(Cl)ccc(F)c3-c3c(OC(=O)C(C)C)c(C)nn(C)c3=O)ccc2n1 [Compound 3.034, [5-[3-chloro-6-fluoro-2-[2-(2-methyl-6-quinolyl)ethyl]phenyl]-1,3-dimethyl-6-oxo-pyridazin-4-yl] 2-methylpropanoate]",4 (4=60-79%),4 (4=60-79%),4 (4=60-79%),5 (5=80-100%),5 (5=80-100%),5 (5=80-100%),5 (5=80-100%),5 (5=80-100%),2 (2=20-39%),5 (5=80-100%),5 (5=80-100%),5 (5=80-100%)
Cc1nn(C)c(=O)c(-c2c(F)ccc(Cl)c2/C=C/c2ccc3c(c2)OC(F)(F)O3)c1OC(=O)C(C)C [Compound 4.342],0,1 (1=0-19%),3 (3=40-59%),2 (2=20-39%),1 (1=0-19%),4 (4=60-79%),1 (1=0-19%),0,1 (1=0-19%),0,0,3 (3=40-59%)

# — US12540128B2, “Substituted pyridazinones as herbicides” (SYNGENTA CROP PROTECTION AG, priority 2019, dated 2026)
